Data: patent US20100093536A1, “CONTROL OF GRASSY WEEDS WITH VINYLGLYCINES AND VINYLGLYCINE-PRODUCING ORGANISMS” (THE STATE OF OREGON ACTING BY AND THROUGH THE STATE BOARD …, priority 2008, published 2010)

Tested on: Poa annua (annual bluegrass) seeds
Experiment: Standard GAF Bioassay System (Standard Poa Bioassay), seed germination scored after 7 days
Type: in vivo
Parameters: key to GERMINATION SCORE IN THE POA BIOASSAY (±Standard Error of the Mean) / GERMINATION SCORE (±Standard Error of the Mean): germination score, 0 = no germination to 4.0 = first true leaf emerged
Details: for reversal of the effects of GAF by amino acids, in words: in presence of WH6 culture filtrate; for toxicity of trace metal in the Poa bioassay, in words: higher concentrations tested (up to 200 μM)
Protocol: The seed of Poa annua (or other test seeds) were surface-sterilized by placing two to five grams of seeds in a 50 ml glass beaker, covering the seeds with a 50% (v/v) solution of H2SO4, and stirring vigorously for 5 minutes. The seed/acid mixture was filtered through a Gooch crucible and repeatedly rinsed with tap water to remove residual acid. The seeds were then placed in a beaker and covered with bleach (Clorox®, NaOCl, 5.25%) containing 1% (v/v) polyoxethylene sorbitan monolaurate (Tween®-20). The seeds were stirred for 5 minutes and then repeatedly rinsed with sterile deionized water and placed in a sterile Petri dish. The seeds were used immediately while wet or dried (spread in a thin layer and allowed to dry under a laminar flow hood with the Petri dish lid ajar for 4 to 8 hours) to prevent premature germination.
Bioassays for GAF activity were performed with Poa annua (annual bluegrass) seeds unless otherwise indicated. For each concentration of each test solution, 200 μl aliquots of solution were distributed to each of three wells of a sterile Costar® forty-eight well tissue culture plate (Corning® Costar® Number 3548). Three surface-sterilized Poa annua seeds were aseptically transferred to each well and submerged in the liquid, providing a total of nine observations for each concentration of each solution tested. The lid of the tissue culture plate was sealed with Parafilm® and the plate was placed in a germinator at 20° C. (8 hour day length at a light intensity of 50 μmol/m^2/s, 16 hour dark period) for seven days. Germination was scored on the basis of the following four-point system: • Score 0: No visible signs of germination. • Score 0.5: Seed coat split but plumule and coleorhiza are not visible. • Score 1.0: Plumule and coleorhiza visible. Plumule chlorotic and shorter than length of seed. Root not yet visible. • Score 1.5: Plumule still shorter than length of seed, but root is clearly visible. • Score 2.0: Plumule approximately equal in length to the seed. Root elongated. • Score 2.5: Plumule obviously longer than length of seed. First true leaf still enclosed in coleoptile. • Score 3.0: First true leaf emerged from coleoptile and green. Emerged portion of the leaf is obviously shorter than the coleoptile. • Score 3.5: First true leaf emerged from coleoptile and green. Emerged portion of the leaf is approximately equal in length to the coleoptile. • Score 4.0: First true leaf emerged from coleoptile and green. Emerged portion of the leaf is obviously longer than the coleoptile.

[1] = WH6 culture filtrate 0, amino acid 0.3 mM
[2] = WH6 culture filtrate 0, amino acid 1 mM
[3] = WH6 culture filtrate 0, amino acid 3 mM
[4] = WH6 culture filtrate 0, amino acid 10 mM
[5] = WH6 culture filtrate 0, amino acid 30 mM
[6] = WH6 culture filtrate 0.1X plus amino acid 0.3 mM
[7] = WH6 culture filtrate 0.1X plus amino acid 1 mM
[8] = WH6 culture filtrate 0.1X plus amino acid 3 mM
[9] = WH6 culture filtrate 0.1X plus amino acid 10 mM
[10] = WH6 culture filtrate 0.1X plus amino acid 30 mM
[11] = GAF Conc. 0, metal 12.5 μM, score 4.0 = normal germination, 1.0 = arrest
[12] = GAF Conc. 2X plus metal 12.5 μM

Row | SMILES | POA BIOASSAY SCORES (±Standard Error of the Mean) [11] | POA BIOASSAY SCORES (±Standard Error of the Mean) (GAF Conc. 0, metal 25 μM) | POA BIOASSAY SCORES (±Standard Error of the Mean) (GAF Conc. 0, metal 50 μM) | POA BIOASSAY SCORES (±Standard Error of the Mean) (GAF Conc. 0, metal 100 μM) | POA BIOASSAY SCORES (±Standard Error of the Mean) (GAF Conc. 0, metal 200 μM) | POA BIOASSAY SCORES (±Standard Error of the Mean) [12] | POA BIOASSAY SCORES (±Standard Error of the Mean) (GAF Conc. 2X plus metal 25 μM) | POA BIOASSAY SCORES (±Standard Error of the Mean) (GAF Conc. 2X plus metal 50 μM) | POA BIOASSAY SCORES (±Standard Error of the Mean) (GAF Conc. 2X plus metal 100 μM) | POA BIOASSAY SCORES (±Standard Error of the Mean) (GAF Conc. 2X plus metal 200 μM) | further results
1 | C[C@H](N)C(=O)O [Alanine] | – | – | – | – | – | – | – | – | – | – | GERMINATION SCORE (±Standard Error of the Mean) [1]: 4.0 ± 0.0; GERMINATION SCORE (±Standard Error of the Mean) [2]: 3.9 ± 0.1; GERMINATION SCORE (±Standard Error of the Mean) [3]: 4.0 ± 0.0; GERMINATION SCORE (±Standard Error of the Mean) [4]: 3.9 ± 0.1; GERMINATION SCORE (±Standard Error of the Mean) [5]: 3.2 ± 0.1; GERMINATION SCORE (±Standard Error of the Mean) [6]: 1.9 ± 0.1; GERMINATION SCORE (±Standard Error of the Mean) [7]: 3.3 ± 0.1; GERMINATION SCORE (±Standard Error of the Mean) [8]: 4.0 ± 0.0; GERMINATION SCORE (±Standard Error of the Mean) [9]: 4.0 ± 0.0; GERMINATION SCORE (±Standard Error of the Mean) [10]: 4.0 ± 0.0; reversal of the effects of GAF by amino acids, in words: most effective
2 | [Ca+2].[Cl-].[Cl-] [CaCl2] | 4.00 ± 0.00 | 4.00 ± 0.00 | 4.00 ± 0.00 | 4.00 ± 0.00 | 4.00 ± 0.00 | 1.00 ± 0.00 | 1.00 ± 0.00 | 1.00 ± 0.00 | 1.00 ± 0.00 | 1.00 ± 0.00 | –
3 | [Cu] [Copper] | – | – | – | – | – | – | – | – | – | – | toxicity of trace metal in the Poa bioassay, in words: completely inhibiting germination
4 | [Cl][Cu][Cl] [CuCl2] | 3.3 ± 0.17 | 2.9 ± 0.04 | 1.2 ± 0.27 | 0.30 ± 0.28 | 0.00 ± 0.00 | 1.00 ± 0.00 | 2.58 ± 0.06 | 3.94 ± 0.06 | 2.97 ± 0.03 | 2.69 ± 0.09 | –
5 | O=S(=O)([O-])[O-].[Cu+2] [CuSO4] | 3.5 ± 0.00 | 3.00 ± 0.00 | 1.11 ± 0.11 | 0.00 ± 0.00 | 0.00 ± 0.00 | 1.00 ± 0.00 | 1.00 ± 0.00 | 1.00 ± 0.00 | 3.00 ± 0.00 | 0.00 ± 0.00 | –
6 | O=S(=O)([O-])[O-].[Fe+2] [FeSO4] | 4.00 ± 0.00 | 3.50 ± 0.13 | 3.00 ± 0.00 | 2.86 ± 0.44 | 2.47 ± 0.07 | 1.00 ± 0.00 | 1.00 ± 0.00 | 1.00 ± 0.00 | 1.00 ± 0.00 | 1.00 ± 0.00 | –
7 | NC(=O)CC[C@H](N)C(=O)O [Glutamine] | – | – | – | – | – | – | – | – | – | – | GERMINATION SCORE (±Standard Error of the Mean) [1]: 4.0 ± 0.0; GERMINATION SCORE (±Standard Error of the Mean) [2]: 4.0 ± 0.0; GERMINATION SCORE (±Standard Error of the Mean) [3]: 3.7 ± 0.3; GERMINATION SCORE (±Standard Error of the Mean) [4]: 3.7 ± 0.3; GERMINATION SCORE (±Standard Error of the Mean) [5]: 4.0 ± 0.0; GERMINATION SCORE (±Standard Error of the Mean) [6]: 1.4 ± 0.1; GERMINATION SCORE (±Standard Error of the Mean) [7]: 1.8 ± 0.2; GERMINATION SCORE (±Standard Error of the Mean) [8]: 3.5 ± 0.3; GERMINATION SCORE (±Standard Error of the Mean) [9]: 4.0 ± 0.0; GERMINATION SCORE (±Standard Error of the Mean) [10]: 4.0 ± 0.0; reversal of the effects of GAF by amino acids, in words: most effective
8 | [Fe] [Iron] | – | – | – | – | – | – | – | – | – | – | toxicity of trace metal in the Poa bioassay, in words: slight toxicity
9 | CC(C)C[C@H](N)C(=O)O [Leucine] | – | – | – | – | – | – | – | – | – | – | GERMINATION SCORE (±Standard Error of the Mean) [1]: 3.9 ± 0.2; GERMINATION SCORE (±Standard Error of the Mean) [2]: 4.0 ± 0.0; GERMINATION SCORE (±Standard Error of the Mean) [3]: 3.6 ± 0.2; GERMINATION SCORE (±Standard Error of the Mean) [4]: 3.0 ± 0.0; GERMINATION SCORE (±Standard Error of the Mean) [5]: 1.7 ± 0.1; GERMINATION SCORE (±Standard Error of the Mean) [6]: 1.5 ± 0.0; GERMINATION SCORE (±Standard Error of the Mean) [7]: 1.5 ± 0.3; GERMINATION SCORE (±Standard Error of the Mean) [8]: 3.6 ± 0.1; GERMINATION SCORE (±Standard Error of the Mean) [9]: 3.4 ± 0.1; GERMINATION SCORE (±Standard Error of the Mean) [10]: 2.8 ± 0.1
10 | [Cl][Ni][Cl] [NiCl2] | 2.78 ± 0.05 | 2.47 ± 0.10 | 1.78 ± 0.09 | 1.44 ± 0.06 | 1.00 ± 0.00 | 1.00 ± 0.00 | 1.00 ± 0.00 | 1.00 ± 0.00 | 1.00 ± 0.00 | 1.00 ± 0.00 | –
11 | [Cl-].[Cl-].[Zn+2] [ZnCl2] | 4.00 ± 0.00 | 4.00 ± 0.00 | 4.00 ± 0.00 | 3.5 ± 0.00 | 3.00 ± 0.00 | 1.00 ± 0.00 | 1.00 ± 0.00 | 1.00 ± 0.00 | 1.00 ± 0.00 | 1.00 ± 0.00 | –
